Test results: ChEMBL document CHEMBL3608233, “Potent benzoazepinone γ-secretase modulators with improved bioavailability” (Bioorg Med Chem Lett, 2015)
Values after ≈ are worked out from the molar mass of the structure shown. Values belong to the compound of their own block, whether it stands above or below them.

Experiments:
[1] = species on record: Canis familiaris; details: dog, in vivo, po, 0.5 mg/kg
[2] = in vivo; details: beagle, dog, iv
[3] = in vivo; details: beagle, dog, iv; remark: listed apart in the source
[4] = physchem; details: buffer, pH 2
[5] = Ratio of drug level in brain to plasma in APP YAC Tg mouse model at 30 mg/kg after 6 hrs; type: ADME, organism-based; details: brain and plasma, read-out: BPR
[6] = in vivo; details: beagle, dog
[7] = physchem; details: buffer, pH 7
[8] = Drug metabolism in dog hepatocytes assessed as formation of methyl ester cleavage product; type: ADME, cell-based, Canis lupus familiaris, Hepatocyte
[9] = in vivo; details: Sprague-Dawley, rat, iv, 1 mg/kg
[10] = Drug metabolism in dog urine assessed as formation of methyl ester cleavage product; type: ADME, tissue-based, Canis lupus familiaris
[11] = Drug metabolism in dog urine assessed as oxidation of benzoazepinone; type: ADME, tissue-based, Canis lupus familiaris
[12] = Plasma concentration in APP YAC Tg mouse model at 30 mg/kg after 6 hrs; type: ADME, organism-based
[13] = in vivo; details: Sprague-Dawley, rat
[14] = Drug metabolism in dog hepatocytes assessed as oxidation of benzoazepinone; type: ADME, cell-based, Canis lupus familiaris, Hepatocyte
[15] = in vitro; details: pig, LLC-PK1
[16] = Drug uptake in brain of APP YAC Tg mouse model at 30 mg/kg after 6 hrs; type: ADME, organism-based; details: read-out: Drug uptake
[17] = in vivo; details: Sprague-Dawley, rat, iv, 1 mg/kg; remark: listed apart in the source
[18] = in vitro; details: rat, hepatocytes
[19] = in vivo; details: Sprague-Dawley, rat, po, 2 mg/kg
[20] = in vitro; details: dog, hepatocytes
[21] = Drug metabolism in dog urine assessed as oxidation of methylimidazole; type: ADME, tissue-based, Canis lupus familiaris
[22] = in vitro; details: human, hepatocytes
[23] = in vivo; details: APP YAC Tg, mouse, plasma, 50 mg/kg
[24] = in vivo; details: APP YAC Tg, mouse, brain, 50 mg/kg
[25] = in vivo; details: APP YAC Tg, mouse, plasma, 100 mg/kg
[26] = in vivo; details: APP YAC Tg, mouse, brain, 100 mg/kg

F [1]: BLD
clearance [2]: 98 mL/min/kg
Vd [3]: 5.6 L/kg
solubility [4]: 170 µM (≈ 87.5 µg/mL)
Kp at 6 h [5]: 0.3
half-life [6]: 42 min
solubility [7]: 4.2 µM (≈ 2.16 µg/mL)
Drug metabolism [8]: metabolite_notdetected
clearance [9]: 38 mL/min/kg
Drug metabolism [10]: metabolite_notdetected
Drug metabolism [11]: metabolite_detected
concentration at 6 h [12]: 5.1 µM
half-life [13]: 48 min
Drug metabolism [14]: metabolite_detected
Papp [15]: 21 ×10⁻⁶ cm/s
concentration at 6 h [16]: 1.6 µM
Vd [17]: 4.8 L/kg
CLint scaled [18]: 210 mL/min/kg
bioavailability [19]: 100%
CLint scaled [20]: 400 mL/min/kg
Drug metabolism [21]: metabolite_detected
CLint scaled [22]: 94 mL/min/kg
Compound: COc1cc(-c2cn([C@H]3CCc4c(F)cccc4N(CC(F)(F)F)C3=O)nn2)ccc1-n1cnc(C)c1

Compound: Cc1cn(-c2ccc(-c3cn([C@H]4CCc5c(F)cccc5N(CC(F)(F)F)C4=O)nn3)cc2F)cn1
concentration at 6 h [23]: 15 µM
concentration at 6 h [24]: 6.8 µM

Compound: COc1cc(-c2cn([C@H]3CCc4c(F)cccc4N(CC(F)(F)F)C3=O)nn2)ccc1-n1cnc(C(F)(F)F)c1
concentration at 6 h [25]: 4.5 µM
concentration at 6 h [26]: 0.87 µM
